Measured values taken from patent US12435060B2, “Acylamino bridged heterocyclic compound, and composition and application thereof” (BEIJING SCITECH-MQ PHARMACEUTICALS LIMITED, priority 2019, dated 2025).

Tested on: HT29 cells
Assay: Inhibition of cell necrosis (CCK8 method), induced programmed necrosis of HT29 cells
Type: cell-based
Settings: Homo sapiens, HT-29; rescue from necrosis induced by TNF-α 20 ng/mL, AT-406 1 μM, Z-VAD-FMK 20 μM; 16-20 hours; CCK-8, OD 450 nm
Method in brief: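 HT29 cells in McCOY's 5A with 10% FBS were pre-treated for 30 min with compound (9 fourfold steps, 25000 to 0.38 nM final, 0.25% DMSO). Necrosis was then induced with TNF-α 20 ng/mL, AT-406 1 μM and Z-VAD-FMK 20 μM for 16-20 h. Viability was read by CCK-8 OD450, normalized between uninduced and induced wells, and IC50 was curve-fitted.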

| SMILES | IC50 [nM] |
| --- | --- |
| O=C(Nc1cc(-c2cc(OCCC3CCOCC3)ccc2Cl)ccn1)c1nnc(CC2CCCC2)[nH]1 [Example 405, N-(4-(2-chloro-5-(2-(tetrahydro-2H-pyran-4-yl)ethoxy)phenyl)pyridin-2-yl)-5-(cyclopentylmethyl)-4H-1,2,4-triazole-3-carboxamide] | ≤ 100 |
| O=C(Nc1cc(-c2cc(OCCC3CCOCC3)ccc2Cl)ccn1)c1nnc(CC2CCCCC2)[nH]1 [Example 406, N-(4-(2-chloro-5-(2-(tetrahydro-2H-pyran-4-yl)ethoxy)phenyl)pyridin-2-yl)-5-(cyclohexylmethyl)-4H-1,2,4-triazole-3-carboxamide] | ≤ 100 |
| CC(C)(O)CCCOc1cc(F)c(Cl)c(-c2ccnc(NC(=O)c3nnc(Cc4ccccc4)[nH]3)c2)c1 [Example 407, 5-benzyl-N-(4-(2-chloro-3-fluoro-5-((4-hydroxy-4-methylpentyl)oxy)phenyl)pyridin-2-yl)-4H-1,2,4-triazole-3-carboxamide] | > 10000 |
| CC(C)(O)CCCOc1cc(F)c(Cl)c(-c2ccnc(NC(=O)c3nnc(Cc4ccccc4F)[nH]3)c2)c1 [Example 408, N-(4-(2-chloro-3-fluoro-5-((4-hydroxy-4-methylpentyl)oxy)phenyl)pyridin-2-yl)-5-(2-fluorobenzyl)-4H-1,2,4-triazole-3-carboxamide] | > 10000 |
| CC(C)(O)CCCOc1ccc(Cl)c(-c2cc(NC(=O)c3nnc(Cc4ccccc4F)[nH]3)ncc2F)c1 [Example 409] | ≤ 100 |
| CC(C)(O)CCCOc1ccc(Cl)c(-c2cc(NC(=O)c3nnc(CC4CCCCC4)[nH]3)ncc2F)c1 [Example 410, N-(4-(2-chloro-5-((4-hydroxy-4-methylpentyl)oxy)phenyl)-5-fluoropyridin-2-yl)-5-(cyclohexylmethyl)-4H-1,2,4-triazole-3-carboxamide] | ≤ 100 |
| CC(C)(O)CCCOc1ccc(Cl)c(-c2cc(NC(=O)c3nnc(Cc4ccccc4F)[nH]3)ncc2Cl)c1 [Example 411, N-(5-chloro-4-(2-chloro-5-((4-hydroxy-4-methylpentyl)oxy)phenyl)pyridin-2-yl)-5-(2-fluorobenzyl)-4H-1,2,4-triazole-3-carboxamide] | 100 to 1000 |
| CC(C)(O)CCCOc1ccc(Cl)c(-c2cc(NC(=O)c3nnc(CC4CCCCC4)[nH]3)ncc2Cl)c1 [Example 412, N-(5-chloro-4-(2-chloro-5-((4-hydroxy-4-methylpentyl)oxy)phenyl)pyridin-2-yl)-5-(cyclohexylmethyl)-4H-1,2,4-triazole-3-carboxamide] | 100 to 1000 |
| Cc1cnc(NC(=O)c2nnc(Cc3ccccc3F)[nH]2)cc1-c1cc(OCCCC(C)(C)O)ccc1Cl [Example 413, N-(4-(2-chloro-5-((4-hydroxy-4-methylpentyl)oxy)phenyl)-5-methylpyridin-2-yl)-5-(2-fluorobenzyl)-4H-1,2,4-triazole-3-carboxamide] | 100 to 1000 |
| Cc1cnc(NC(=O)c2nnc(CC3CCCCC3)[nH]2)cc1-c1cc(OCCCC(C)(C)O)ccc1Cl [Example 414, N-(4-(2-chloro-5-((4-hydroxy-4-methylpentyl)oxy)phenyl)-5-methylpyridin-2-yl)-5-(cyclohexylmethyl)-4H-1,2,4-triazole-3-carboxamide] | 100 to 1000 |
| CCC(O)(CC)CCCOc1ccc(Cl)c(-c2cc(NC(=O)c3nnc(Cc4ccccc4F)[nH]3)ncc2F)c1 [Example 415, N-(4-(2-chloro-5-((4-ethyl-4-hydroxyhexyl)oxy)phenyl)-5-fluoropyridin-2-yl)-5-(2-fluorobenzyl)-4H-1,2,4-triazole-3-carboxamide] | ≤ 100 |
| CCC(O)(CC)CCCOc1ccc(Cl)c(-c2cc(NC(=O)c3nnc(CC4CCCCC4)[nH]3)ncc2F)c1 [Example 416, N-(4-(2-chloro-5-((4-ethyl-4-hydroxyhexyl)oxy)phenyl)-5-fluoropyridin-2-yl)-5-(cyclohexylmethyl)-4H-1,2,4-triazole-3-carboxamide] | ≤ 100 |
| CCC(O)(CC)CCCOc1ccc(Cl)c(-c2cc(NC(=O)c3nnc(Cc4ccccc4F)[nH]3)ncc2Cl)c1 [Example 417, N-(5-chloro-4-(2-chloro-5-((4-ethyl-4-hydroxyhexyl)oxy)phenyl)pyridin-2-yl)-5-(2-fluorobenzyl)-4H-1,2,4-triazole-3-carboxamide] | 100 to 1000 |
| CCC(O)(CC)CCCOc1ccc(Cl)c(-c2cc(NC(=O)c3nnc(CC4CCCCC4)[nH]3)ncc2Cl)c1 [Example 418, N-(5-chloro-4-(2-chloro-5-((4-ethyl-4-hydroxyhexyl)oxy)phenyl)pyridin-2-yl)-5-(cyclohexylmethyl)-4H-1,2,4-triazole-3-carboxamide] | 100 to 1000 |
| CC(C)(O)CCCCOc1ccc(Cl)c(-c2cc(NC(=O)c3nnc(Cc4ccccc4F)[nH]3)ncc2F)c1 [Example 419, N-(4-(2-chloro-5-((5-hydroxyl-5-methylhexyl)oxy)phenyl)-5-fluoropyridin-2-yl)-5-(2-fluorobenzyl)-4H-1,2,4-triazole-3-carboxamide] | ≤ 100 |
| CC(C)(O)CCCCOc1ccc(Cl)c(-c2cc(NC(=O)c3nnc(Cc4ccccc4F)[nH]3)ncc2Cl)c1 [Example 420, N-(5-chloro-4-(2-chloro-5-((5-hydroxyl-5-methylhexyl)oxy)phenyl)pyridin-2-yl)-5-(2-fluorobenzyl)-4H-1,2,4-triazole-3-carboxamide] | 100 to 1000 |
| CC(C)(O)CCCCOc1ccc(Cl)c(-c2cc(NC(=O)c3nnc(CC4CCCCC4)[nH]3)ncc2Cl)c1 [Example 421, N-(5-chloro-4-(2-chloro-5-((5-hydroxyl-5-methylhexyl)oxy)phenyl)pyridin-2-yl)-5-(cyclohexylmethyl)-4H-1,2,4-triazole-3-carboxamide] | 100 to 1000 |
| O=C(Nc1cc(-c2cc(OCC3CCOCC3)ccc2Cl)c(F)cn1)c1nnc(Cc2ccccc2F)[nH]1 [Example 422, N-(4-(2-chloro-5-((tetrahydro-2H-pyran-4-yl)methoxy)phenyl)-5-fluoropyridin-2-yl)-5-(2-fluorobenzyl)-4H-1,2,4-triazole-3-carboxamide] | ≤ 100 |
| O=C(Nc1cc(-c2cc(OCC3CCOCC3)ccc2Cl)c(F)cn1)c1nnc(CC2CCCCC2)[nH]1 [Example 423, N-(4-(2-chloro-5-((tetrahydro-2H-pyran-4-yl)methoxy)phenyl)-5-fluoropyridin-2-yl)-5-(cyclohexylmethyl)-4H-1,2,4-triazole-3-carboxamide] | ≤ 100 |
| O=C(Nc1cc(-c2cc(OCC3CCOCC3)ccc2Cl)c(Cl)cn1)c1nnc(Cc2ccccc2F)[nH]1 [Example 424, N-(5-chloro-4-(2-chloro-5-((tetrahydro-2H-pyran-4-yl)methoxy)phenyl)pyridin-2-yl)-5-(2-fluorobenzyl)-4H-1,2,4-triazole-3-carboxamide] | 100 to 1000 |
| O=C(Nc1cc(-c2cc(OCC3CCOCC3)ccc2Cl)c(Cl)cn1)c1nnc(CC2CCCCC2)[nH]1 [Example 425, N-(5-chloro-4-(2-chloro-5-((tetrahydro-2H-pyran-4-yl)methoxy)phenyl)pyridin-2-yl)-5-(cyclohexylmethyl)-4H-1,2,4-triazole-3-carboxamide] | 100 to 1000 |
| Cc1cnc(NC(=O)c2nnc(Cc3ccccc3F)[nH]2)cc1-c1cc(OCC2CCOCC2)ccc1Cl [Example 426, N-(4-(2-chloro-5-((tetrahydro-2H-pyran-4-yl)methoxy)phenyl)-5-methylpyridin-2-yl)-5-(2-fluorobenzyl)-4H-1,2,4-triazole-3-carboxamide] | 100 to 1000 |
